Experimental data: US6017719A, “Positive and positive/negative cell selection mediated by peptide release” (Nexell Therapeutics, Inc., priority 1995, dated 2000)
Entries after “also recorded” stand apart in the source; their conditions may differ. One block for each compound: values may come before it. Ends that are not written are not given here.

Assays:
561 antibody [1] = assay: Chemical reagents as enhancers of peptide-dependent release of CD34+ cells from the 561 antibody (FACS assay); assay type: cell-based
Procedure: The ability of chemical reagents to enhance peptide-dependant release of captured CD34+ cells from the 561 antibody was examined. […] Since long-term viability of the low pH-released cells was not known, conditions which could alter the pH to a more neutral value (about pH5-7) were desirable.
Reagents which were known to affect electrostatic and hydrogen bonding interactions of proteins were tested in addition to excluded-volume polymers. Included in these studies were sodium chloride, sodium acetate, magnesium chloride, calcium chloride, polyethylene glycol (PEG), ficoll, sodium succinate, sodium citrate, protamine sulphate, spermine, and polybrene.

561 antibody [2] = assay: KG1a or tHL60 cell-based FACS assay: release of prebound 561 antibody; assay type: binding
From the text: Five peptides representing hexapeptides selected from biopannings were synthesized and tested for their ability to serve as release agents in the KG1a or tHL60 cell-based FACS assay.
The peptides (see Table 27 below) were synthesized by Research Genetics and tested without purification. The 9069 antibody was used as a positive control and released with the 9069N peptide (Ac-Q Q G W F P-K D) (SEQ ID NO:9). This control served to test for the KG1a cells and the goat-anti-mouse FITC secondary detection antibody. Hexapeptide sequences identified for the 561 antibody were tested for their ability to displace prebound 561 antibody.
HPLC-purified peptides 561C and D were tested in the cell-based KG1a FACS assay.
Functional release activity of purified 561D peptide at pH 4 and 6 was tested.
Functional release activity of purified 561C and 561D peptides at pH 4, 5, 6, 7, 8, and 9 was tested.
Functional release activity of crude 561A,B,C,D, M, P, Q, CDR2H, CDR2L, CDR3H, CDR3L, 34B, 34C,34D,34E and 34F peptides adjusted to pH 7 and pH unadjusted (~pH3.8-4.3) was tested.

anti-CD34 antibody, 9069 = assay: KG1a cell FACS assay: release by peptides of 9069 antibody prebound to cells; assay type: binding, mouse; details: peptide added to KG1a cells with prebound 9069; 10^5 to 10^6 molar excess, 30 min, room temperature
Procedure: These experiments were performed following a similar procedure to the binding experiments except that the anti-CD34 antibody, 9069, was incubated with KG1a cells first, followed by addition of peptide. The experimental outline is schematically shown below:
KG1a Cell Assay to Test for Release by Peptides of 9069 Antibody Bound to Cells.
Anti-CD34 antibody, 9069 (0.i microgram) was incubated with KG1a cells (10^6) for 30 minutes at room temperature (about 22° C.). Molar excesses of 10^5 to 10^6 times the amount of peptide to antibody were tested for the ability to displace the prebound antibody. Peptides were incubated with the antibody-cell complexes for 30 minutes at room temperature (approximately 22° C.). Remaining bound antibody was detected using the FITC-goat anti-mouse IgG reagent described in Example 3.
Analysis of the variant peptide, 9069Q2, was done in parallel with the 9069N peptide. This analysis provides quality control information on reagents including the antibody, 9069, and the cells, KG1a. FACScan assays included a negative control of KG1a cells alone and positive control samples of KG1a cells with the 9069 antibody bound and detected with a secondary antibody, goat-anti-mouse IgG-FITC.

CD34 cells = assay: Stem cell selection with 9069 antibody, sheep-anti-mouse beads and releasing agent; assay type: cell-based, human; details: chymopapain release
CD34+ cells = assay: CD34+ cell isolation on automated cell separation apparatus, then culture with cytokines; assay type: cell-based, human
Procedure: CD34+ cells were also isolated from human mobilized peripheral blood using the automated cell separation apparatus described in U.S. Pat. No. 5,536,475 and the method essentially as described in WO 95/24969 Both U.S. Pat. No. 5,536,475 and WO 95/24969 are herein expressly incorporated by reference. Chymopapain was used as the control releasing agent, and 25 mg of the peptide 9069N (Table 11) was used as the test releasing agent.

[3] = Solubilization of peptides in DPBS plus 1% HSA; assay type: physicochemical
From the text: 9079A-G peptides were solubilized in Dulbecco's phosphate buffered saline (DPBS) plus 1% HSA.

[4] = crude peptide, pH unadjusted (around pH 3.8-4.3; low pH ~4)
[5] = Table 7, mobilized peripheral blood (5.86% CD34 start)
[6] = Table 10, mobilized peripheral blood (0.68% CD34 start)

Compound: [Cl-].[Cl-].[Mg+2] [magnesium chlordie, magnesium chloride]
- enhancement of peptide mediated release of CD34+ selected cells (561 antibody [1]): Less dramatic results

Compound: CC(=O)[O-].[Na+] [sodium acetate]
- enhancement of peptide mediated release of CD34+ selected cells (561 antibody [1]): significant activity as an enhancement reagent

Compound: A C K W C R (ACKWCR) [Peptide 561M]
- release activity on prebound 561 antibody (561 antibody [2]; crude peptide, pH 7): none of these peptides showed release activity; also recorded: did not show release activity
- release activity on prebound 561 antibody (561 antibody [2]; [4]): showed functional release activity; also recorded: showed significant release activity
- release of 561 antibody prebound to KG1a or tHL60 cells (in words) (561 antibody [2]; crude peptides, pH not stated): able to release 561 antibody prebound to KG1a or tHL60 cells
- release activity on prebound 561 antibody (561 antibody [2]; pH 6): did not show release activity

Compound: A D G A-L I S Q V S-Q A K D (ADGALISQVSQAKD) [Peptide 9069C]
- % Inhibition of Binding (anti-CD34 antibody, 9069): 32%

Compound: A I Y P G D G D T R Y T Q K F V V (AIYPGDGDTRYTQKFVV) [Peptide 561CDR2H]
- release activity on prebound 561 antibody (561 antibody [2]; crude peptide, pH 7): none of these peptides showed release activity; also recorded: did not show release activity
- release activity on prebound 561 antibody (561 antibody [2]; [4]): showed functional release activity; also recorded: showed significant release activity
- release activity on prebound 561 antibody (561 antibody [2]; pH 6): did not show release activity

Compound: Chymopapain
- % CD34 CELLS Negative Fraction (CD34 cells; [5]): 2.5%
- % CD34 CELLS Positive Fraction (CD34 cells; [5]): 94%
- % Capture (CD34 cells; [5]): 62%
- % CD34 CELLS Negative Fraction (CD34 cells; Table 8, mobilized peripheral blood (1.05% CD34 start)): 0.16%
- % CD34 CELLS Negative Fraction (CD34 cells; Table 9, bone marrow (3.66% CD34 start)): 0.34%
- % CD34 CELLS Negative Fraction (CD34 cells; [6]): 0.12%
- % Yield (CD34 cells; [6]): 68%
- purity of the positively selected CD34+ cells (CD34+ cells; mobilized peripheral blood, 25 mg peptide 9069N or chymopapain control): greater than 90%
- expansion in cell number (CD34+ cells; released CD34+ cells of first experiment, culture with cytokines for 12 days): 68 fold

Other lines, results leading:

- solubility [3]: solubilized
Compound: IQEFGVKD [Peptide 9079F, IQEFGV--KD]

- solubility [3]: solubilized
Compound: KDVYSLWPKD [Peptide 9079H, KD--VYSLWP--KD]

- solubility [3]: solubilized
Compound: NLQGEFKD [Peptide 9079D, NLQGEF--KD]

- solubility [3]: solubilized
Compound: PGSPLGKD [Peptide 9079A, PGSPLG--KD]

- solubility [3]: solubilized
Compound: QYTQPKD [Peptide 9079C, QYTQPK--D]

- solubility [3]: insoluble
Compound: RSFYYRD [Peptide 9079E, RSFYYR--D]

- solubility [3]: solubilized
Compound: YSRLGFKD [Peptide 9079B, YSRLGF--KD]
